# Results taken from paper PMC5077133, “Towards Development of Small Molecule Lipid II Inhibitors as Novel Antibiotics” (PLoS ONE, 2016).
# What was measured:
# A. baumanii ATCC 19606 = assay: Antibacterial activity (MIC, broth dilution); format: cell-based, Acinetobacter baumanii; conditions: CLSI, in µg/mL
# Excerpt: Staphylococcus aureus ATCC 29213, Escherichia coli ATCC 25922, Enterococcus faecalis ATCC 29212, Streptococcus pneumonia ATCC 49619 and Acinetobacter baumanii ATCC 19606 were obtained from Microbiologics (St. Cloud, MN). E. faecalis ATCC 51575, ATCC 51299 and REMEL C99707 and E. faecium ATCC 51559 (MDR), REMEL IH79985 and REMEL C110914 were generously provided by the Laboratory of Pathology, University of Maryland Baltimore School of Medicine. Unless stated otherwise, chemicals and reagents were purchased from Sigma.
# (§1) Determination of the Minimal Inhibitory Concentrations (MIC) by dilution was carried out by broth dilution according to CLSI standards.
# E. aerogenes ATCC 13048 = assay: Antibacterial activity (MIC, broth dilution); format: cell-based; conditions: CLSI
# Experimental: as §1
# E. cloacae ATCC 13047 = assay: Antibacterial activity (MIC, broth dilution); format: cell-based; conditions: CLSI
# Experimental: as §1
# E. faecium EF1509 (VRE) = assay: Antibacterial activity (MIC, broth dilution); format: cell-based; conditions: CLSI, in µg/mL
# Experimental: as §1
# E. faecium F118 (VRE) = assay: Antibacterial activity (MIC, broth dilution); format: cell-based; conditions: CLSI, in µg/mL
# Experimental: as §1
# [1] = test system: K. pneumoniae NR-15410 (KPC); assay: Antibacterial activity (MIC, broth dilution); format: cell-based; conditions: CLSI
# Experimental: as §1
# [2] = test system: K. pneumoniae NR-15411 (KPC); assay: Antibacterial activity (MIC, broth dilution); format: cell-based; conditions: CLSI
# Experimental: as §1
# P. aeruginosa ATCC 27853 = assay: Antibacterial activity (MIC, broth dilution); format: cell-based; conditions: CLSI
# Experimental: as §1
# P. aeruginosa PA01 = assay: Antibacterial activity (MIC, broth dilution); format: cell-based; conditions: CLSI
# Experimental: as §1
# P. aeruginosa X13273 = assay: Antibacterial activity (MIC, broth dilution); format: cell-based; conditions: CLSI, in µg/mL
# Experimental: as §1
# [3] = test system: S. aureus HFH-30123 (MRSA); assay: Antibacterial activity (MIC, broth dilution); format: cell-based; conditions: CLSI
# Experimental: as §1
# S. aureus MRSA 1094 = assay: Antibacterial activity (MIC, broth dilution); format: cell-based; conditions: CLSI
# Experimental: as §1
# HeLa cells = assay: Cytotoxicity against mammalian cells (MTS assay); format: cell-based
# Experimental: The cytotoxicity concentration of antibacterial compounds that produces half maximal decrease in viability (CC50) against mammalian cells (HeLa, ATCC CCL-2.2) was determined as described. The effect of compounds on HeLa cell viability was assessed in triplicate by measuring the mitochondrial activity using MTS assays according to the manufacturer’s instructions (Cell Titer 96 proliferation assay, Promega). The cells were incubated for 72 hours in RPMI1640 medium containing the compounds at final concentrations ranging from 64 to 0.125 μg/ml. CC50 was determined using a standard curve of serially diluted untreated cells in each experiment.
# [4] = Lipid II binding by Surface Plasmon Resonance; conditions: SPR, immobilized 3-Lipid II, 25°C
# Experimental: Short-chain water-soluble Lipid II containing a lipid tail of three isoprene units was generated and purified essentially as described. Typically, M. flavus vesicles (120 μmol lipid-Pi) were incubated together with 500 μmol UDP-GlcNAc, 500 μmol UDP-MurNAC-pentapeptide and 400 μmol farnesyl phosphate in 100 mM Tris-HCl pH 8.0, 5 mM MgCl2. The incubation lasted two hours at room temperature for 3-P. The synthesis of 3-Lipid II was followed using RP-8 reversed phase TLC (Merck) developed in 75% methanol. For purification, the membranes were removed by centrifugation at 40,000 x g and the supernatant was collected and loaded on a C18 HPLC column and eluted with a linear gradient from 50 mM ammonium bicarbonate to 100% methanol in 30 minutes. Farnesyl-Lipid II (3-Lipid II) eluted at approximately 60% methanol. Its identity was confirmed by mass spectroscopy. Surface Plasmon Resonance binding experiments were carried out on a BIAcore T100 system (BIAcore Inc., Piscataway, NY) at 25°C. The assay buffer was 10 mM HEPES, 150 mM NaCl, 0.05% surfactant P20, pH 7.4 (± 3 mM EDTA) supplemented with 10% DMSO. 3-Lipid II (50 RUs) was immobilized on CM5 sensor chips using the amine-coupling chemistry recommended by the manufacturer. For initial determination of binding, compounds were introduced into the flow-cells (30 μl/min) in the running buffer at 10 μM. Resonance signals were corrected for nonspecific binding by subtracting the background of the control flow-cell. After each analysis, the sensor chip surfaces were regenerated with 50 mM NaOH for 30 s at a flow rate 100 μl/min, and equilibrated with the buffer prior to next injection. For binding kinetics studies, binding isotherms were analyzed with manufacturer-supplied software for BIAcore T100.
Structure (SMILES),Antibacterial activity (MIC) A. baumanii ATCC 19606 (A. baumanii ATCC 19606),Antibacterial activity (MIC) E. aerogenes ATCC 13048 (E. aerogenes ATCC 13048),Antibacterial activity (MIC) E. cloacae ATCC 13047 (E. cloacae ATCC 13047),Antibacterial activity (MIC) E. faecium EF1509 (VRE) (E. faecium EF1509 (VRE)),Antibacterial activity (MIC) E. faecium F118 (VRE) (E. faecium F118 (VRE)),Antibacterial activity (MIC) K. pneumoniae NR-15410 (KPC) [1],Antibacterial activity (MIC) K. pneumoniae NR-15411 (KPC) [2],Antibacterial activity (MIC) P. aeruginosa ATCC 27853 (P. aeruginosa ATCC 27853),Antibacterial activity (MIC) P. aeruginosa PA01 (P. aeruginosa PA01),Antibacterial activity (MIC) P. aeruginosa X13273 (P. aeruginosa X13273),Antibacterial activity (MIC) S. aureus HFH-30123 (MRSA) [3],Antibacterial activity (MIC) S. aureus MRSA 1094 (S. aureus MRSA 1094),Kd [4],CC50% (72 h HeLa cells) (HeLa cells)
CCc1ccc(-c2cc(/C=C/c3c[nH]c4ccccc34)[o+]c(-c3ccc(CC)cc3)c2)cc1.F[B-](F)(F)F [6jc64-3],>=64,≥ 64 µg/mL,64 µg/mL,8,8,64 µg/mL,64 µg/mL,≥ 64 µg/mL,≥ 64 µg/mL,>=64,4 µg/mL,5.66 µg/mL,4.92 ± 0.5 µM,3.29
CCc1ccc(-c2cc(/C=C/C=C/c3ccc(N(C)C)cc3)[o+]c(-c3ccc(CC)cc3)c2)cc1.F[B-](F)(F)F [6jc64-2],>=64,≥ 64 µg/mL,≥ 64 µg/mL,5.66,16,≥ 64 µg/mL,≥ 64 µg/mL,≥ 64 µg/mL,≥ 64 µg/mL,>=64,8 µg/mL,8 µg/mL,23.8 ± 4 µM,<.78125
Cc1ccc(-c2cc(/C=C/c3cn(C)c4ccccc34)[o+]c(-c3ccc(C)cc3)c2)cc1.F[B-](F)(F)F [6jc65-2],32,64 µg/mL,64 µg/mL,2,4,64 µg/mL,≥ 64 µg/mL,≥ 64 µg/mL,≥ 64 µg/mL,>=64,2 µg/mL,2 µg/mL,3.9 ± 0.4 µM,0.94
C(=C\c1c[nH]c2ccccc12)/c1cc(-c2ccccc2)cc(-c2ccccc2)[o+]1.F[B-](F)(F)F [Jc-49-1],>=64,≥ 64 µg/mL,≥ 64 µg/mL,16,16,≥ 64 µg/mL,≥ 64 µg/mL,≥ 64 µg/mL,≥ 64 µg/mL,>=64,8 µg/mL,8 µg/mL,0.17 ± 0.05 µM,2.2
CN(C)c1ccc(/C=C/c2cc(-c3ccccc3)cc(-c3ccccc3)[o+]2)cc1.F[B-](F)(F)F [6jc39],16,≥ 64 µg/mL,≥ 64 µg/mL,4,4,64 µg/mL,≥ 64 µg/mL,≥ 64 µg/mL,≥ 64 µg/mL,>=64,4 µg/mL,2 µg/mL,39 ± 4 µM,1.31
CN(C)c1ccc(/C=C/C=C/c2cc(-c3ccccc3)cc(-c3ccccc3)[o+]2)cc1.F[B-](F)(F)F [6jc43-1],45.25,≥ 64 µg/mL,≥ 64 µg/mL,4,4,≥ 64 µg/mL,≥ 64 µg/mL,≥ 64 µg/mL,≥ 64 µg/mL,>=64,4 µg/mL,4 µg/mL,62 ± 6 µM,0.93
CN(C)c1ccc(/C=C/C=C/c2cc(-c3ccc(Br)cc3)cc(-c3ccc(Br)cc3)[o+]2)cc1.F[B-](F)(F)F [6jc48-2],>=64,≥ 64 µg/mL,≥ 64 µg/mL,4,16,≥ 64 µg/mL,≥ 64 µg/mL,≥ 64 µg/mL,≥ 64 µg/mL,>=64,≥ 64 µg/mL,≥ 64 µg/mL,1.14 ± 0.3 µM,60.51

# Now from value to compound, other results behind:
Antibacterial activity (MIC) A. baumanii ATCC 19606 (A. baumanii ATCC 19606),Antibacterial activity (MIC) E. aerogenes ATCC 13048 (E. aerogenes ATCC 13048),Antibacterial activity (MIC) E. cloacae ATCC 13047 (E. cloacae ATCC 13047),Antibacterial activity (MIC) E. faecium EF1509 (VRE) (E. faecium EF1509 (VRE)),Antibacterial activity (MIC) E. faecium F118 (VRE) (E. faecium F118 (VRE)),Antibacterial activity (MIC) K. pneumoniae NR-15410 (KPC) [1],Antibacterial activity (MIC) K. pneumoniae NR-15411 (KPC) [2],Antibacterial activity (MIC) P. aeruginosa ATCC 27853 (P. aeruginosa ATCC 27853),Antibacterial activity (MIC) P. aeruginosa PA01 (P. aeruginosa PA01),Antibacterial activity (MIC) P. aeruginosa X13273 (P. aeruginosa X13273),Antibacterial activity (MIC) S. aureus HFH-30123 (MRSA) [3],Antibacterial activity (MIC) S. aureus MRSA 1094 (S. aureus MRSA 1094),Kd [4],Structure (SMILES),CC50% (72 h HeLa cells) (HeLa cells)
32,≥ 64 µg/mL,≥ 64 µg/mL,2,2,≥ 64 µg/mL,≥ 64 µg/mL,≥ 64 µg/mL,≥ 64 µg/mL,>=64,2 µg/mL,2 µg/mL,16.1 ± 0.3 µM,CCc1ccc(-c2cc(/C=C/c3cc4c5c(c3)CCCN5CCC4)[o+]c(-c3ccc(CC)cc3)c2)cc1.F[B-](F)(F)F [6jc-69-1],<.78125
11.31,32 µg/mL,64 µg/mL,2,4,64 µg/mL,≥ 64 µg/mL,64 µg/mL,64 µg/mL,64,2 µg/mL,2.83 µg/mL,2.17 ± 0.2 µM,Cc1ccc(-c2cc(/C=C/c3cc4c5c(c3)CCCN5CCC4)[o+]c(-c3ccc(C)cc3)c2)cc1.F[B-](F)(F)F [6jc65-1],<.78125
>=64,≥ 64 µg/mL,≥ 64 µg/mL,2.83,4,≥ 64 µg/mL,≥ 64 µg/mL,≥ 64 µg/mL,≥ 64 µg/mL,>=64,4 µg/mL,4 µg/mL,0.6 ± 0.1 µM,Cc1ccc(-c2cc(/C=C/c3cc4c5c(c3)CCCN5CCC4)[o+]c(-c3ccc(C)c(C)c3)c2)cc1C.F[B-](F)(F)F [6jc-69-3],<.78125
